Experimental data taken from patent publication US10905139B2, “Refreshing beverage” (priority 2011, dated 2021).

Tests used:
[1] = in vivo; cited from earlier work
[2] = in vivo; cited from earlier work; remark: listed apart in the source
[3] = system: cancer cells (in cancer tissue sections); test: fermentation metabolism of cancer cells with different sugars as food substrate (Warburg); format: cell-based; conditions: sugar as food substrate
From the text: On the other hand, tests carried out by the Nobel prizewinner Otto Heinrich Warburg have shown that the fermentation metabolism of cancer cells (in cancer tissue sections) progresses most effectively with glucose as a food substrate, specifically at a rate of 23.9 consumed units per unit of time, whereas, with the substrate fructose, it progresses less effectively by a factor of 7 (rate 3.3), and, with galactose, progresses even less effectively by a factor of 18 (rate 1.3). […] Galactose should therefore be a key sugar source in the diet of cancer patients.

[4] = system: cancer cells (in cancer tissue sections); conditions: sugar as food substrate; cited from earlier work

SMILES | glycemic index (GI) [1] | extent digested directly by the human body [2] | remaining fraction broken down by the intestinal flora [2] [%] | factor by which fermentation progresses less effectively than with glucose [3] | rate of fermentation metabolism [4]
O=C[C@H](O)[C@H](O)[C@H](O)CO [Ribose] | negative |  |  |  | 
O=C(CO)[C@@H](O)[C@@H](O)[C@H](O)CO [Tagatose] | 3 | approximately 20% | 80 |  | 
O=C(CO)[C@@H](O)[C@H](O)[C@H](O)CO [fructose, reference compound] |  |  |  | 7 | 3.3 consumed units per unit of time
O=C[C@H](O)[C@@H](O)[C@@H](O)[C@H](O)CO [galactose] | 20 |  |  | 18 | 1.3 consumed units per unit of time
O=C[C@H](O)[C@@H](O)[C@H](O)[C@H](O)CO [glucose, reference compound] | 100 |  |  |  | 23.9 consumed units per unit of time
OC[C@H]1O[C@H](OC[C@H]2OC(O)(CO)[C@@H](O)[C@@H]2O)[C@H](O)[C@@H](O)[C@@H]1O (some centres unmarked) [isomaltulose] | 32 |  |  |  | 
OC[C@H]1O[C@@](CO)(O[C@H]2O[C@H](CO)[C@@H](O)[C@H](O)[C@H]2O)[C@@H](O)[C@@H]1O [sucrose, reference compound] | 65 |  |  |  | 
OC[C@H]1O[C@H](O[C@H]2O[C@H](CO)[C@@H](O)[C@H](O)[C@H]2O)[C@H](O)[C@@H](O)[C@@H]1O [trehalose] | ~32 |  |  |  | 
